4 compounds from patent US7759331B2, “Pyridine-containing macroheterococylic compounds as kinase inhibitors” (Janssen Pharmaceutica NV, priority 2006, dated 2010) can be followed below.

For one test, the target named is T1, IKKα(h) (Homo sapiens, UniProt O15111).
T1 sequence (O15111 1-745): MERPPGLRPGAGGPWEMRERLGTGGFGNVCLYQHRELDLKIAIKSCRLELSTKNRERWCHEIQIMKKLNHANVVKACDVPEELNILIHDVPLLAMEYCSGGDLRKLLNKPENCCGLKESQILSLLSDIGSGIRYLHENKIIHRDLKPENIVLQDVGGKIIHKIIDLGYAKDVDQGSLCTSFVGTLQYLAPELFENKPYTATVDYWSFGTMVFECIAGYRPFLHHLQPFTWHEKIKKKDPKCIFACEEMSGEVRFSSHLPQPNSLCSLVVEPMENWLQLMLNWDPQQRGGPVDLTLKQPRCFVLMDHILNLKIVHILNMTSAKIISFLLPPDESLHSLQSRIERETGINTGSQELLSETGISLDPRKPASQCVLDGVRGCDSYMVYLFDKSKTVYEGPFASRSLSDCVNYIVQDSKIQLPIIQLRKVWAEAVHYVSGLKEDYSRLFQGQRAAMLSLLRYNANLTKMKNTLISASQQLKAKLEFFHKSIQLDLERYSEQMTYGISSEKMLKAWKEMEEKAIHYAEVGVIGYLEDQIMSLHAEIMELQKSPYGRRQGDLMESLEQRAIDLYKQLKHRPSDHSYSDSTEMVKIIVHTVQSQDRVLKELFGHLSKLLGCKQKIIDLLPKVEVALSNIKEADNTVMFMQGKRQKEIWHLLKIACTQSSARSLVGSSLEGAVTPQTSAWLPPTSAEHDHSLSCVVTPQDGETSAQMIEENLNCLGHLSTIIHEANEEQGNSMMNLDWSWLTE
Description: Protein kinase selectivity panel. The conditions noted are these: 1.0 μM compound, 10 μM ATP. It counts as biochemical. In a few lines: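 Each kinase was tested for phosphorylation of its appropriate peptide or protein substrate with compound present at 1.0 μM. ATP was held at 10 μM, and reactions were run within the linear range with respect to time.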

The next test addresses PKA(b) (Bos taurus, UniProt P00517). Description: Protein kinase selectivity panel. It counts as biochemical, bovine. Particulars: 1.0 μM compound, 10 μM ATP. Here is the method:
Protein kinase selectivity assays were performed as described in the scientific literature (Davies, S. P., et al., Biochem. J. 2000, 351, 95-105). Briefly, protein kinases were assayed for their ability to phosphorylate the appropriate peptide/protein substrates in the presence of 1.0 μM compound. Assays were done using 10 μM ATP and were linear with respect to time. The protein kinase selectivity assays were performed by Upstate Cell Signaling Solutions using Upstate's KinaseProfiler™ Selectivity Screening Service.

Each structure is given as a SMILES string.

For `CN(C)c1nc2ccc1CCCCn1cc(c3ccccc31)C1=C(C(=O)NC1=O)c1cn(c3ccccc13)CCC2` [Cpd 1, 31-(dimethylamino)-5,15,25,32-tetraazaheptacyclo[28.2.2.1^5,12.1^18,25.0^6,11.0^13,17.0^19,24]hexatriaconta-1(32),6,8,10,12(36),13(17),18(35),19,21,23,30,33-dodecaene-14,16-dione], the “Activity at Protein Kinase Assays (% of control), IKKα(h)” value (shortened to “Activity … (% of control), IKKα(h)”) on IKKα(h) is 92 % of control. In addition, on PKA(b), the “Activity at Protein Kinase Assays (% of control), PKA(b)” value (from here on “Activity … (% of control), PKA(b)”) is on record as 99 % of control.
Take `CN(C)c1cc2cc(n1)CCCn1cc(c3ccccc31)C1=C(C(=O)NC1=O)c1cn(c3ccccc13)CCC2` [Cpd 2, 20-(dimethylamino)-4,14,19,26-tetraazaheptacyclo[24.6.1.1^7,14.1^18,22.0^2,6.0^8,13.0^27,32]pentatriaconta-1(33),2(6),7(35),8,10,12,18(34),19,21,27,29,31-dodecaene-3,5-dione]: the “Activity … (% of control), IKKα(h)” value at IKKα(h) is on record as 133 % of control. The “Activity … (% of control), PKA(b)” value at PKA(b) is reported as 107 % of control.
For the compound `O=C1NC(=O)C2=C1c1cn(c3ccccc13)CCCc1cc(nc(N3CCCC3)c1)CCCn1cc2c2ccccc21` [Cpd 6, 20-pyrrolidin-1-yl-4,14,19,26-tetraazaheptacyclo[24.6.1.1^7,14.1^18,22.0^2,6.0^8,13.0^27,32]pentatriaconta-1(33),2(6),7(35),8,10,12,18(34),19,21,27,29,31-dodecaene-3,5-dione], the “Activity … (% of control), IKKα(h)” value at IKKα(h) is recorded as 132 % of control. In addition, the “Activity … (% of control), PKA(b)” value on PKA(b) was 89 % of control.
Turning to `O=C1NC(=O)C2=C1c1cn(c3ccccc13)CCCc1ccc(c(N3CCCC3)n1)CCCn1cc2c2ccccc21` [Cpd 7, 31-pyrrolidin-1-yl-5,15,25,30-tetraazaheptacyclo[27.2.2.1^5,12.1^18,25.0^6,11.0^13,17.0^19,24]pentatriaconta-1(31),6,8,10,12(35),13(17),18(34),19,21,23,29,32-dodecaene-14,16-dione], the “Activity … (% of control), IKKα(h)” value on IKKα(h) was 121 % of control. On PKA(b), the “Activity … (% of control), PKA(b)” value was 105 % of control.
